Series [1] is described as follows: Compound solubility in water.
The target of a further series is T1, acid ceramidase (Homo sapiens, UniProt Q13510).
T1 construct: Cell lysates overexpressing acid ceramidase were used as the enzyme source; expressed in transfected cells
T1 sequence (Q13510 22-395): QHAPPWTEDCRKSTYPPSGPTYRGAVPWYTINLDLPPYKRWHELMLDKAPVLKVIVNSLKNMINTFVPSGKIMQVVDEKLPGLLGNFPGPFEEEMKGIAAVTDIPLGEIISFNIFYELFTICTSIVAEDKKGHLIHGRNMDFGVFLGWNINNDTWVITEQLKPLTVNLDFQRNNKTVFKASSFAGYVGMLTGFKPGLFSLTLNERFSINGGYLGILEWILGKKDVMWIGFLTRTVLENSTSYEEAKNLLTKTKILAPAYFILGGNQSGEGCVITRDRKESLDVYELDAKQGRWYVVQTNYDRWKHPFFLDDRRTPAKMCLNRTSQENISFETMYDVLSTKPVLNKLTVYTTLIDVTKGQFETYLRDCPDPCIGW
The series can be described thus: Acid ceramidase inhibition, biochemical fluorescent assay with cell lysates overexpressing acid ceramidase, substrate Rbm14-12. As to conditions: substrate Rbm14-12 6.3 μM. As to the method:
The ability of exemplary compounds to inhibit acid ceramidase was measured.
Cell lysates overexpressing acid ceramidase were used as the enzyme source for compound potency determination in a biochemical fluorescent assay. Briefly, compounds were preincubated with 10 μg protein of cell lysates in a dose-response manner for 1 hr at RT in the assay buffer containing 25 mM NaAC and 100 mM NaCl, pH 4.5. The reaction was initiated by the addition of substrate Rbm14-12 at a final concentration of 6.3 μM. The reaction was run at RT for 1 hr before it was stopped by the addition of the stopping buffer containing 20% methanol (v/v), 1 mg/ml NaIO4, 0.1 M glycine, pH 10.6. The samples were incubated with the stopping buffer at RT for 1 hr to allow the fluorescent product to be formed. Finally, the plate was read with SpectraMax i3 plate reader (Molecular Devices) at ex360 nm and em446 nm. Data were collected and used to determine the IC50 values of compounds by curve fitting to the four-parameter inhibition equation.

[2] abbreviates: pH 4.5, 1 hr preincubation at RT.

In brackets after ≈: the same amount, converted by molar mass.

With `CC(C)CCNC(=O)n1cnc2c(N3C[C@H](C)O[C@@H](C)C3)cccc21` (stereo in doubt) [Example 168, 4-((2S,6S)-2,6-Dimethylmorpholino)-N-iso-pentyl-1H-benzo[d]imidazole-1-carboxamide], the solubility (as a rule, the dissolved amount per volume that the medium holds) in series [1] was 0.011 mg/mL (≈ 31.9 µM). Further, the IC50 (usually the point on the concentration scale where inhibition reaches its midpoint) against acid ceramidase (pH 4.5) lay within 0.2 to 1 µM.

In series [1], `COc1nc2ccc(N3CCOCC3)cc2n1C(=O)NCCc1ccccc1` [28 & 29a] came in with a solubility of 0.018 mg/mL (≈ 47.3 µM). The IC50 at acid ceramidase (setting [2]) lay in the range of 0.2 to 1 µM. The matching figures for `O=C(NCCc1ccccc1)n1cnc2ccccc21` [Example 1, N-Phenethyl-1H-benzo[d]imidazole-1-carboxamide]: 0.008 mg/mL (≈ 30.2 µM) and less than 0.2 µM. Consider `Cc1nc2ccccc2n1C(=O)NCCc1ccccc1` [Example 2, 2-Methyl-N-phenethyl-1H-benzo[d]imidazole-1-carboxamide], for which the IC50 against acid ceramidase (setting [2]) was less than 0.2 µM. The compound `COc1nc2ccccc2n1C(=O)NCCc1ccccc1` [Example 3, 2-Methoxy-N-phenethyl-1H-benzo[d]imidazole-1-carboxamide] showed a solubility in series [1] of 0.01 mg/mL (≈ 33.9 µM). At acid ceramidase (setting [2]), this compound yielded an IC50 of less than 0.2 µM.

With `CN1CCC(c2ccc3c(c2)ncn3C(=O)NCCc2ccccc2)CC1` [Example 4, 5-(1-Methylpiperidin-4-yl)-N-phenethyl-1H-bezo[d]imidazole-1-carboxamide], in series [1], the solubility was found to be 0.0206 mg/mL (≈ 56.8 µM). On acid ceramidase (setting [2]), the IC50 is less than 0.2 µM.

As for `O=C(NCCCc1ccccc1)n1cnc2ccccc21` [Example 5, N-(3-Phenylpropyl)-1H-benzo[d]imidazole-1-carboxamide], the solubility in series [1] stood at 0.0138 mg/mL (≈ 49.4 µM). Besides, the IC50 against acid ceramidase (setting [2]) is less than 0.2 µM. Turning to `O=C(NCCCCc1ccccc1)n1cnc2ccccc21` [Example 6, N-(4-Phenylbutyl)-1H-benzo[d]imidazole-1-carboxamide], the solubility in series [1] is 0.001 mg/mL (≈ 3.41 µM). For the same compound, on acid ceramidase (setting [2]), the IC50 is less than 0.2 µM. `O=C(NCCc1ccccc1)n1cnc2cc(-c3ccccn3)c(Cl)cc21` [Example 7a, 6-Chloro-N-phenethyl-5-(pyridin-2-yl)-1H-benzo[d]imidazole-1-carboxamide] showed a solubility in series [1] of 0.0004 mg/mL (≈ 1.06 µM). On acid ceramidase (setting [2]), this compound gave an IC50 of less than 0.2 µM. `O=C(NCCc1ccccc1)n1cnc2cc(Cl)c(-c3ccccn3)cc21` [Example 7b, 5-chloro-N-phenethyl-6-(pyridin-2-yl)-1H-benzo[d]imidazole-1-carboxamide]: the concentration in solution in series [1] (solubility) came to 0.0001 mg/mL (≈ 0.265 µM). On acid ceramidase (setting [2]), the IC50 was less than 0.2 µM. For `O=C(NCCc1ccccc1)n1cnc2cc(-c3cncnc3)ccc21` [Example 8a, N-Phenethyl-5-(pyrimidin-5-yl)-1H-benzo[d]imidazole-1-carboxamide], in that order: 0.0037 mg/mL (≈ 10.8 µM) and less than 0.2 µM. In turn, `O=C(NCCc1ccccc1)n1cnc2ccc(-c3cncnc3)cc21` [Example 8b, N-phenethyl-6-(pyrimidin-5-yl)-1H-benzo[d]imidazole-1-carboxamide] displayed a solubility in series [1] of 0.0145 mg/mL (≈ 42.2 µM). The half-maximal inhibitory concentration (IC50) against acid ceramidase (setting [2]) was less than 0.2 µM. For `O=C(NCCc1ccccc1)n1cnc2cc(-c3ncccn3)ccc21` [Example 9, N-Phenethyl-5-(pyrimidin-2-yl)-1H-benzo[d]imidazole-1-carboxamide], in that order: 0.0054 mg/mL (≈ 15.7 µM) and less than 0.2 µM. For `O=C(NCCc1ccccc1)n1cnc2cc(-c3cccnc3)ccc21` [Example 10a, N-Phenethyl-5-(pyridin-3-yl)-1H-benzo[d]imidazole-1-carboxamide], in that order: 0.0012 mg/mL (≈ 3.5 µM) and less than 0.2 µM. The matching figures for `O=C(NCCc1ccccc1)n1cnc2ccc(-c3cccnc3)cc21` [Example 10b, N-phenethyl-6-(pyridin-3-yl)-1H-benzo[d]imidazole-1-carboxamide]: 0.0006 mg/mL (≈ 1.75 µM) and less than 0.2 µM. In series [1], `CN1CCC(c2cc3c(cc2Cl)ncn3C(=O)NCCc2ccccc2)CC1` [Example 11a, 5-Chloro-6-(1-methylpiperidin-4-yl)-N-phenethyl-1H-benzo[d]imidazole-1-carboxamide] showed a solubility of 0.0231 mg/mL (≈ 58.2 µM). For the same compound, the IC50 on acid ceramidase (setting [2]) is less than 0.2 µM. The matching figures for `CN1CCC(c2cc3ncn(C(=O)NCCc4ccccc4)c3cc2Cl)CC1` [Example 11b, 6-Chloro-5-(1-methylpiperidin-4-yl)-N-phenethyl-1H-benzo[d]imidazole-1-carboxamide]: 0.0231 mg/mL (≈ 58.2 µM) and less than 0.2 µM. The matching figures for `CN1CCC(c2cccc3c2ncn3C(=O)NCCc2ccccc2)CC1` [Example 12, 4-(1-Methylpiperidin-4-yl)-N-phenethyl-1H-benzo[d]imidazole-1-carboxamide]: 0.0305 mg/mL (≈ 84.1 µM) and less than 0.2 µM. The matching figures for `O=C(NCCc1ccccc1)n1cnc2cc(N3CCCCC3)ccc21` [Example 13a, N-Phenethyl-5-(piperidin-1-yl)-1H-benzo[d]imidazole-1-carboxamide]: 0.0026 mg/mL (≈ 7.46 µM) and less than 0.2 µM.

In turn, `O=C(NCCc1ccccc1)n1cnc2ccc(N3CCCCC3)cc21` [Example 13b, N-Phenethyl-6-(piperidin-1-yl)-1H-benzo[d]imidazole-1-carboxamide] yielded a solubility in series [1] of 0.0091 mg/mL (≈ 26.1 µM). The same compound showed an IC50 against acid ceramidase (setting [2]) of less than 0.2 µM. `O=C(NCCc1ccccc1)n1cnc2cc(N3CCOCC3)ccc21` [Example 14a, 5-Morpholino-N-phenethyl-1H-benzo[d]imidazole-1-carboxamide] yielded a solubility in series [1] of 0.0161 mg/mL (≈ 45.9 µM). In addition, the IC50 at acid ceramidase (setting [2]) was less than 0.2 µM. The matching figures for `O=C(NCCc1ccccc1)n1cnc2ccc(N3CCOCC3)cc21` [Example 14b, 6-Morpholino-N-phenethyl-1H-benzo[d]imidazole-1-carboxamide]: 0.0312 mg/mL (≈ 89 µM) and less than 0.2 µM. Consider `CN1CCN(c2ccc3c(c2)ncn3C(=O)NCCc2ccccc2)CC1` [Example 15a, 5-(4-Methylpiperazin-1-yl)-N-phenethyl-1H-benzo[d]imidazole-1-carboxamide], for which the concentration in solution in series [1] (solubility) was 0.0204 mg/mL (≈ 56.1 µM). Besides, on acid ceramidase (setting [2]), the IC50 is less than 0.2 µM. For `CN1CCN(c2ccc3ncn(C(=O)NCCc4ccccc4)c3c2)CC1` [Example 15b, 6-(4-Methylpiperazin-1-yl)-N-phenethyl-1H-benzo[d]imidazole-1-carboxamide], in that order: 0.0229 mg/mL (≈ 63 µM) and less than 0.2 µM.

The compound `CC(C)CNC(=O)n1cnc2cc(-c3cncnc3)ccc21` [Example 16a, N-iso-Butyl-5-(pyrimidin-5-yl)-1H-benzo[d]imidazole-1-carboxamide] came in with a solubility in series [1] of 0.0042 mg/mL (≈ 14.2 µM). On acid ceramidase (setting [2]), this compound had an IC50 of less than 0.2 µM.

The compound `CC(C)CNC(=O)n1cnc2ccc(-c3cncnc3)cc21` [Example 16b, N-iso-Butyl-6-(pyrimidin-5-yl)-1H-benzo[d]imidazole-1-carboxamide] had a solubility in series [1] of 0.0183 mg/mL (≈ 62 µM). In addition, the IC50 against acid ceramidase (setting [2]) is less than 0.2 µM. In series [1], `O=C(NCc1ccccc1)n1cnc2ccccc21` [Example 17, N-Benzyl-1H-benzo[d]imidazole-1-carboxamide] showed a solubility of 0.0019 mg/mL (≈ 7.56 µM). The IC50 against acid ceramidase (setting [2]) was less than 0.2 µM. For `O=C(NCCOc1ccccc1)n1cnc2ccccc21` [Example 18, N-(2-Phenoxyethyl)-1H-benzo[d]imidazole-1-carboxamide], in that order: 0.002 mg/mL (≈ 7.11 µM) and less than 0.2 µM. For `O=C(NCCc1ccccc1)n1cnc2ncccc21` [Example 19a, N-Phenethyl-1H-imidazo[4,5-b]pyridine-1-carboxamide], in that order: 0.0261 mg/mL (≈ 98 µM) and less than 0.2 µM.

In series [1], `O=C(NCCc1ccccc1)n1cnc2cccnc21` [Example 19b, N-phenethyl-3H-imidazo[4,5-b]pyridine-3-carboxamide] displayed a solubility of 0.0245 mg/mL (≈ 92 µM). This compound returned an IC50 at acid ceramidase (setting [2]) of less than 0.2 µM. Compound `COCCNC(=O)n1c(OC)nc2ncccc21` [Example 95, 2-Methoxy-N-(2-methoxyethyl)-1H-imidazo[4,5-b]pyridine-1-carboxamide] returned an IC50 against acid ceramidase (setting [2]) of 0.2 to 1 µM. On to `CC(C)CCNC(=O)n1cnc2c(N3CCN(C)CC3)cc(Cl)cc21` [Example 112, 6-Chloro-N-iso-pentyl-4-(4-methylpiperazin-1-yl)-1H-benzo[d]imidazole-1-carboxamide], for which the solubility in series [1] was 0.0275 mg/mL (≈ 75.6 µM). In the case of `CCOc1nc2cccnc2n1C(=O)NCCC(C)C` [Example 113, 2-Ethoxy-N-iso-pentyl-3H-imidazo[4,5-b]pyridine-3-carboxamide], at acid ceramidase (setting [2]), the IC50 was less than 0.2 µM. Still for that read-out and setting: in the case of `COc1nc2ncccc2n1C(=O)NCCCOc1ccccc1` [Example 129, 2-Methoxy-N-(3-phenoxypropyl)-1H-imidazo[4,5-h]pyridine-1-carboxamide] it was less than 0.2 µM.

For the compound `Cn1c(=O)n(C(=O)NCCCCn2ccc(C(C)(C)C)n2)c2ncccc21` [Example 135b, N-(4-(3-(tert-butyl)-1H-pyrazol-1-yl)butyl)-1-methyl-2-oxo-1,2-dihydro-3H-imidazo[4,5-b]pyridine-3-carboxamide], the solubility in series [1] came out at 0.023 mg/mL (≈ 62.1 µM).

Values taken from patent US20220380319A1 (Bial - R&D Investments, S.A., priority 2019, published 2022).
